Assay results as given in ChEMBL document CHEMBL1157410, “7-aryl 1,5-dihydro-benzo[e][1,4]oxazepin-2-ones and analogs as non-steroidal progesterone receptor antagonists” (Bioorg Med Chem, 2008).

What was measured:
Progesterone receptor = target: T1, Progesterone receptor (Homo sapiens, UniProt P06401); assay: Inhibition of progesterone receptor mediated progesterone-induced alkaline phosphatase activity in human T47D cells; type: cell-based
T1 sequence (P06401 whole entry): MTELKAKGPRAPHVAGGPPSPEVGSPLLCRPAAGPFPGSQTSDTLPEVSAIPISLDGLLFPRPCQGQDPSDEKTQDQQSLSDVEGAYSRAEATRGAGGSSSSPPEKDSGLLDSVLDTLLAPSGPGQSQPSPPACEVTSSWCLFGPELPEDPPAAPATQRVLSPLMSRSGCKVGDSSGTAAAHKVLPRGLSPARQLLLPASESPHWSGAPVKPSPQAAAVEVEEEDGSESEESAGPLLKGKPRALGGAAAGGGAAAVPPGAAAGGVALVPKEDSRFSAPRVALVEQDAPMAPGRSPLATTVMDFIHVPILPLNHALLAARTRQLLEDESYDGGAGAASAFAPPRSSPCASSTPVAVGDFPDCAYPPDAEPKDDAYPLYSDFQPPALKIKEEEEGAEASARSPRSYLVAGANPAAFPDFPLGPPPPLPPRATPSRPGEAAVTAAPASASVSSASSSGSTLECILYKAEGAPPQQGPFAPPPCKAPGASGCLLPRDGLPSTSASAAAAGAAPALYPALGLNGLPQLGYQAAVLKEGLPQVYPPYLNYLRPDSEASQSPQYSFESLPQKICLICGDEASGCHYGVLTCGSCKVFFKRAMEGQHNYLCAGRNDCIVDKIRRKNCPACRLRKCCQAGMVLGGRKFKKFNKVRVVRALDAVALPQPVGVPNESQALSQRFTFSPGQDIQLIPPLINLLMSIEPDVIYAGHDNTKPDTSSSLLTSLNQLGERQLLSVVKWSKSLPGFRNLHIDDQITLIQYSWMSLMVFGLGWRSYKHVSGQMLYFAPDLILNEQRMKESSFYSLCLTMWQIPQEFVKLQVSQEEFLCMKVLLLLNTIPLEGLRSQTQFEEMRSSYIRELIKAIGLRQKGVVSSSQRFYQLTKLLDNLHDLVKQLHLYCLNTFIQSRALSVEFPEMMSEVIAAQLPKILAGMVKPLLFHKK

Glucocorticoid receptor = target: T2, Glucocorticoid receptor (Homo sapiens, UniProt P04150); assay: Antagonist activity at cloned glucocorticoid receptor-ligand binding domain expressed in african green monkey COS7 cells by GAL4 luciferase reporter assay; type: cell-based, COS-7
T2 sequence (P04150 whole entry): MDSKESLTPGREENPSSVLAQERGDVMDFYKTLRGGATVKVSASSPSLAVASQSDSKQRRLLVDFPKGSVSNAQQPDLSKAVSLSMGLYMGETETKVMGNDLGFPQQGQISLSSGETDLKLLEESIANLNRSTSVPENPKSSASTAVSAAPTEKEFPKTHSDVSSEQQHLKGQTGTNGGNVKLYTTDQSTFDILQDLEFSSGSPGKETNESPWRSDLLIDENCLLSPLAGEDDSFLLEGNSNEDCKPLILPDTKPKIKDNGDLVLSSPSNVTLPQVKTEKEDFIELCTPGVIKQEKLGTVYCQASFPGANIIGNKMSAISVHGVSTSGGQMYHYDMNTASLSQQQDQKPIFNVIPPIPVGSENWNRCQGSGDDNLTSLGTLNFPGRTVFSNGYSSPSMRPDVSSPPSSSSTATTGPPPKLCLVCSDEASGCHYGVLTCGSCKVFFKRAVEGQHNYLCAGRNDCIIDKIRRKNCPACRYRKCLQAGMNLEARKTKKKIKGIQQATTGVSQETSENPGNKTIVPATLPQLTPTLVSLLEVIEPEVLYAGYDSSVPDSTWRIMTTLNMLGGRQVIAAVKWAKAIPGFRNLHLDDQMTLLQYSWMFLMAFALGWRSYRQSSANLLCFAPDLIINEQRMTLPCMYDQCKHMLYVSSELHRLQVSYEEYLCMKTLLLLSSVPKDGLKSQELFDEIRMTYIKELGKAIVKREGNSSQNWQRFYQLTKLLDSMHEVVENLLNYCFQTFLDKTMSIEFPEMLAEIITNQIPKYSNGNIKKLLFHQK

Androgen receptor = target: T3, Androgen receptor (Homo sapiens, UniProt P10275)
T3 sequence (P10275 whole entry): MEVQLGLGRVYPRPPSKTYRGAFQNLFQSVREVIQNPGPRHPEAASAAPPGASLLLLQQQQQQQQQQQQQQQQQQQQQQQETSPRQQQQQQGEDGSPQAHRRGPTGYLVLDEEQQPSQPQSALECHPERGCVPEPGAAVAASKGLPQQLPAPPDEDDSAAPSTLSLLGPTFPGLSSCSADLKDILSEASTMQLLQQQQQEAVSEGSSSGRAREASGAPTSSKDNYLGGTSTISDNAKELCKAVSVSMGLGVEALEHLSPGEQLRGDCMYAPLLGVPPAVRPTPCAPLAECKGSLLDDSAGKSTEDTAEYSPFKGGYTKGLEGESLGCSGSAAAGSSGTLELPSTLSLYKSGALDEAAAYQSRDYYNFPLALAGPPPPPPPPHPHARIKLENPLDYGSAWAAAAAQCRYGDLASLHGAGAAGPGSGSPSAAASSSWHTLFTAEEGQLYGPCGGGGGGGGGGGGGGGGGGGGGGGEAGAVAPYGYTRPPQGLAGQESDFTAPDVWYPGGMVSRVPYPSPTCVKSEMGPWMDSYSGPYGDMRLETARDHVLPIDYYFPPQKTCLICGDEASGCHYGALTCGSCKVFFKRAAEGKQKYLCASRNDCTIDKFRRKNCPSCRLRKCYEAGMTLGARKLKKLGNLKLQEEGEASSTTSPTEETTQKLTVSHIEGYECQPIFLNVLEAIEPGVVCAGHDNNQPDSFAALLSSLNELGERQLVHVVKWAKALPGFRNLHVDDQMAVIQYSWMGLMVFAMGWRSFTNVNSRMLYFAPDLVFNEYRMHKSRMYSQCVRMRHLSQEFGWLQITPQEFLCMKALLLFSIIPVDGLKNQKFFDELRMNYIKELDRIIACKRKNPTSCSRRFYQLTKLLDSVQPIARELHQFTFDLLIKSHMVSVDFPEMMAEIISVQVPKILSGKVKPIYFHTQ
Description: Antagonist activity at cloned androgen receptor-ligand binding domain expressed in african green monkey COS7 cells by two hybrid luciferase assay

| IC50 (Progesterone receptor) | IC50 (Glucocorticoid receptor) | IC50 (Androgen receptor) | Compound |
| --- | --- | --- | --- |
| 13.3 nM | 1300 nM | > 3000 nM | N#Cc1cc(F)cc(-c2ccc3c(c2)C(c2ccco2)(c2ccco2)OCC(=O)N3)c1 |
| 25 nM | > 3000 nM | > 3000 nM | CC1(C)OCC(=O)Nc2ccc(-c3cc(F)cc(C#N)c3)cc21 |

| Compound | IC50 (Progesterone receptor) | IC50 (Glucocorticoid receptor) | IC50 (Androgen receptor) |
| --- | --- | --- | --- |
| CCC1(c2ccco2)OCC(=O)Nc2ccc(-c3cc(F)cc(C#N)c3)cc21 (centres undefined) | 11.8 nM | 190 nM | 690 nM |
